Targets include Translin (Homo sapiens) (UniProt Q15631); Matrin-3 (Homo sapiens) (UniProt P43243); Rootletin (Homo sapiens) (UniProt Q5TZA2).
For assay [1], the target named is Protein PRRC2C (Homo sapiens) (UniProt Q9Y520). Further: assay method not described here.
Assay [2] addresses Calcyclin-binding protein (Homo sapiens) (UniProt Q9HB71).
Assay [3] addresses Very-long-chain (3R)-3-hydroxyacyl-CoA dehydratase 3 (Homo sapiens) (UniProt Q9P035).
Assay [4] is filed under the species Homo sapiens.
The next assay has as its target Ephrin type-A receptor 2 (Homo sapiens, UniProt P29317). The experiment in a line: Inhibition of Nano Luc-fused full length C-terminal EPHA2 (unknown origin) expressed in HEK293T cells using NanoGlo as substrate incubated for 2 hrs in presence of tracer by NanoBRET assay. The class given is cell-based. Background: BRET reads energy transfer from a luciferase to a nearby fluorophore.

Assay [5] concerns the target Brefeldin A-inhibited guanine nucleotide-exchange protein 1 (Homo sapiens) (UniProt Q9Y6D6). Further: assay method not described here.
For assay [6], the target named is Histone H1.2 (Homo sapiens) (UniProt P16403). Further: assay method not described here.
Assay [7] has as its target Nuclear cap-binding protein subunit 2 (Homo sapiens) (UniProt P52298). Further: assay method not described here.
In assay [8] the target is Zinc finger protein with KRAB and SCAN domains 2 (Homo sapiens) (UniProt Q63HK3). Further: assay method not described here.
Sequence of Zinc finger protein with KRAB and SCAN domains 2 (Homo sapiens) (Q63HK3 whole entry, the tested form may be a part): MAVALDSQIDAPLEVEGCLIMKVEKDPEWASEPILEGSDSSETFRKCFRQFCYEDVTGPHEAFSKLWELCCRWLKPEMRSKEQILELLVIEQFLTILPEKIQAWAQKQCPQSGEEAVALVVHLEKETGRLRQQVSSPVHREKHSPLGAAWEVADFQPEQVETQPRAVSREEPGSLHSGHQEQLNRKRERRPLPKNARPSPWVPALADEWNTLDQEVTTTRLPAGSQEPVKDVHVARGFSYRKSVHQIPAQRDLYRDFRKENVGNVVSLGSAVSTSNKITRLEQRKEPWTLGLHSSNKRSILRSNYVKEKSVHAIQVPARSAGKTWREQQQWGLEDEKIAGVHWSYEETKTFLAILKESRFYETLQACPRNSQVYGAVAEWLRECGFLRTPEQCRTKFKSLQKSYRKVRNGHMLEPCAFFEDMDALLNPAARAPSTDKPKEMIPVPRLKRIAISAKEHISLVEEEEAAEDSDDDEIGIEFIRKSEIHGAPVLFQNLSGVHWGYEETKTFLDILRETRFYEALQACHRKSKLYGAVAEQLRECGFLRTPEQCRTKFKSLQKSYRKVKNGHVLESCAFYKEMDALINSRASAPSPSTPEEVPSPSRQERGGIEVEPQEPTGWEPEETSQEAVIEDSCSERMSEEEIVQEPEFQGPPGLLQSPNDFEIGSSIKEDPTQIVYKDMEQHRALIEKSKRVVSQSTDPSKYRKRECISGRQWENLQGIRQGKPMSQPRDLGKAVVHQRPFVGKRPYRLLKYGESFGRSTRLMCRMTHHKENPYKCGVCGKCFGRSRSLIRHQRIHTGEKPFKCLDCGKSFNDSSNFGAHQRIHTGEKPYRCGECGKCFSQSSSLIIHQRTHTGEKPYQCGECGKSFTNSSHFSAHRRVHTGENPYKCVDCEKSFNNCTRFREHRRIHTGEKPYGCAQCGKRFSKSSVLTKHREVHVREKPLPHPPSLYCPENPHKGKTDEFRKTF
The target of assay [9] is Retinoblastoma-binding protein 5 (Homo sapiens) (UniProt Q15291). Further: assay method not described here.
The target in assay [10] is Small ribosomal subunit protein uS2 (Homo sapiens) (UniProt P08865). Further: assay method not described here.
In assay [11] the target is Serine/threonine-protein phosphatase 4 regulatory subunit 3A (Homo sapiens) (UniProt Q6IN85). Further: assay method not described here.
In assay [12] the target is Ubiquitin carboxyl-terminal hydrolase 39 (Homo sapiens) (UniProt Q53GS9). Further: assay method not described here.
In assay [13] the target is General transcription factor IIF subunit 2 (Homo sapiens) (UniProt P13984). Further: assay method not described here.
In assay [14] the target is Zinc finger CCHC domain-containing protein 8 (Homo sapiens) (UniProt Q6NZY4). Further: assay method not described here.
Assay [15] deals with Lysophosphatidylcholine acyltransferase 1 (Homo sapiens) (UniProt Q8NF37).
In assay [16] the target is Tubulin beta-4A chain (Homo sapiens) (UniProt P04350). Further: assay method not described here.
The target in assay [17] is Mitochondrial 2-oxodicarboxylate carrier (Homo sapiens) (UniProt Q9BQT8). Further: assay method not described here.
Sequence of Mitochondrial 2-oxodicarboxylate carrier (Homo sapiens) (Q9BQT8 whole entry): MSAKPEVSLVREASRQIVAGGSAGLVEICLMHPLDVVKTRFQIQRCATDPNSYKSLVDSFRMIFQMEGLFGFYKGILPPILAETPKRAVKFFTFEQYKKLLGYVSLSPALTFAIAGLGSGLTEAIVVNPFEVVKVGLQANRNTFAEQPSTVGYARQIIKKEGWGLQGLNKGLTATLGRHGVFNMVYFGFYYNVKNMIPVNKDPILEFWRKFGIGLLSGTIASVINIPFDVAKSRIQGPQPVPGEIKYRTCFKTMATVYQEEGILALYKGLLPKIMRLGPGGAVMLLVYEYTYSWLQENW
Assay [18] has as its target AP-3 complex subunit delta-1 (Homo sapiens) (UniProt O14617). Further: assay method not described here.
The target in assay [19] is Mismatch repair endonuclease PMS2 (Homo sapiens) (UniProt P54278). Further: assay method not described here.
The target in assay [20] is Rho guanine nucleotide exchange factor 1 (Homo sapiens) (UniProt Q92888). Further: assay method not described here.
Assay [21] concerns the target Splicing factor 3B subunit 2 (Homo sapiens) (UniProt Q13435). Further: assay method not described here.
Assay [22] concerns the target Nascent polypeptide-associated complex subunit alpha (Homo sapiens) (UniProt Q13765). Further: assay method not described here.
In assay [23] the target is Solute carrier family 2, facilitated glucose transporter member 1 (Homo sapiens) (UniProt P11166). Further: assay method not described here.
Assay [24] deals with Aldo-keto reductase family 1 member D1 (Homo sapiens) (UniProt P51857).
Assay [25] deals with AP-1 complex subunit sigma-1A (Homo sapiens) (UniProt P61966).
Assay [26] concerns the target La-related protein 7 (Homo sapiens) (UniProt Q4G0J3). Further: assay method not described here.
The target in assay [27] is Nucleolar MIF4G domain-containing protein 1 (Homo sapiens) (UniProt Q5C9Z4). Further: assay method not described here.
Assay [28] has as its target MAP/microtubule affinity-regulating kinase 4 (Homo sapiens) (UniProt Q96L34). Further: assay method not described here.
Assay [29] concerns the target Presenilin-associated rhomboid-like protein, mitochondrial (Homo sapiens) (UniProt Q9H300). Further: assay method not described here.
The target in assay [30] is Ras suppressor protein 1 (Homo sapiens) (UniProt Q15404). Further: assay method not described here.
The target of assay [31] is Vacuolar protein sorting-associated protein 51 homolog (Homo sapiens) (UniProt Q9UID3). Further: assay method not described here.
Sequence of Vacuolar protein sorting-associated protein 51 homolog (Homo sapiens) (Q9UID3 whole entry): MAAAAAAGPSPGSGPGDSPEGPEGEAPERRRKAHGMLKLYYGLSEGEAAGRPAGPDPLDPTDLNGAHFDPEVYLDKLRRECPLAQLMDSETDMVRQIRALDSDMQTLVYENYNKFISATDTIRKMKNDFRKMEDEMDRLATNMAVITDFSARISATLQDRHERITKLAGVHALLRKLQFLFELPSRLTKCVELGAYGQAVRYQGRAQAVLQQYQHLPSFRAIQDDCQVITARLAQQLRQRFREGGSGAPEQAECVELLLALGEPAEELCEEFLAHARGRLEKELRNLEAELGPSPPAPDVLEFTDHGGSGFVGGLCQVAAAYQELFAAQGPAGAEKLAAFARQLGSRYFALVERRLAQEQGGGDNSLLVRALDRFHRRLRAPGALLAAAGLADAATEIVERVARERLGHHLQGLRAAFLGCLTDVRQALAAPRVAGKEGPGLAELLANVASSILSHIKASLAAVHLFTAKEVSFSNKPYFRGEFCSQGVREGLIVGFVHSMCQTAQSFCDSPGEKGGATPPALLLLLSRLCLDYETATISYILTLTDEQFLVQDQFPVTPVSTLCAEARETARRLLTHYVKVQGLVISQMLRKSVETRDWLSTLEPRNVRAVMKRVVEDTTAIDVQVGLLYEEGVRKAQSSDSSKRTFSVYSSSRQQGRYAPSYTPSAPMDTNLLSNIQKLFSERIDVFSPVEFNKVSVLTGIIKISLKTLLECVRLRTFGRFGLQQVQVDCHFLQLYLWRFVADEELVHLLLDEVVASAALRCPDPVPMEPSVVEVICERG
The species named for assay [32] is Homo sapiens. The source holds these as a separate data set.
The target of assay [33] is Secretory carrier-associated membrane protein 2 (Homo sapiens) (UniProt O15127). Further: assay method not described here.
For assay [34], the target named is Macrophage-stimulating protein receptor (Homo sapiens) (UniProt Q04912). Further: assay method not described here.
Sequence of Macrophage-stimulating protein receptor (Homo sapiens) (Q04912 25-304 limits assumed): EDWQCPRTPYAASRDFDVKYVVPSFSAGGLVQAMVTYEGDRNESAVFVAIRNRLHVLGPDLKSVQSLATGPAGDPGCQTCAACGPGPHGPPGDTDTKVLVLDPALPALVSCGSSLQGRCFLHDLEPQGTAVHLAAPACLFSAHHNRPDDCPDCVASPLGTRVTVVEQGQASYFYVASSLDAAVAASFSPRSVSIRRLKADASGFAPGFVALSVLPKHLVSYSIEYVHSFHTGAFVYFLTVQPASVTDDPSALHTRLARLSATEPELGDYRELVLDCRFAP
Sequence of Macrophage-stimulating protein receptor (Homo sapiens) (Q04912 310-1400 limits assumed): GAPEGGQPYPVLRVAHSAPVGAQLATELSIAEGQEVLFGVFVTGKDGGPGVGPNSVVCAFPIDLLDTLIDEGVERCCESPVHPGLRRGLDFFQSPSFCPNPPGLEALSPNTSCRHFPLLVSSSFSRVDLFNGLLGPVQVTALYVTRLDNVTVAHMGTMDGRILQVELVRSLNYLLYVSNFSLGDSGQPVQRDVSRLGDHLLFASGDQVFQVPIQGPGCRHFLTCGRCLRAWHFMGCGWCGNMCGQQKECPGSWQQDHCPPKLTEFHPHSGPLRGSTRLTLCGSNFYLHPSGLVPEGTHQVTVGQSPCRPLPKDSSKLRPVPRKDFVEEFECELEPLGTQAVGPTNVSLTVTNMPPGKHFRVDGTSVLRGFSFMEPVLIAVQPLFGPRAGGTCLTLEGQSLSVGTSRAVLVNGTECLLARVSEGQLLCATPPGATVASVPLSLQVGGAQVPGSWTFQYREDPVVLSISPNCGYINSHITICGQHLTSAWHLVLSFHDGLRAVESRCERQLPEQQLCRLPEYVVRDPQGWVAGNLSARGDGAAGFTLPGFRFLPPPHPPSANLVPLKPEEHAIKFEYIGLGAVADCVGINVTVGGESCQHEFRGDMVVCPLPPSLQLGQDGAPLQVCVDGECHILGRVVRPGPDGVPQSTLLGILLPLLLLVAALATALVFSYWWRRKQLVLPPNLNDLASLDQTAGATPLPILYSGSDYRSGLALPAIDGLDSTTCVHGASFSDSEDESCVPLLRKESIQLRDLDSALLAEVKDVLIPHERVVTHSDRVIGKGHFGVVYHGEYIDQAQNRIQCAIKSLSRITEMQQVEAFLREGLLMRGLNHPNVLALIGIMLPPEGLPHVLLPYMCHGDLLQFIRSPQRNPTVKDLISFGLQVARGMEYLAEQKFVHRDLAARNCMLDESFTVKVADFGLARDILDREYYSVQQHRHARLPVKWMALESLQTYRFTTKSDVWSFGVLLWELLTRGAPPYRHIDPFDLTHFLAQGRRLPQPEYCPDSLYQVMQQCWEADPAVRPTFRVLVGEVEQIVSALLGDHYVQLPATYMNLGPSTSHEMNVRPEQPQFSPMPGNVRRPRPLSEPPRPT
Assay [35] deals with Prospero homeobox protein 1 (Homo sapiens) (UniProt Q92786).
Assay [36] concerns the target Phosphatidate cytidylyltransferase 2 (Homo sapiens) (UniProt O95674). Further: assay method not described here.
Assay [37] deals with Replication factor C subunit 1 (Homo sapiens) (UniProt P35251).
In assay [38] the target is Nucleosome assembly protein 1-like 4 (Homo sapiens) (UniProt Q99733). Further: assay method not described here.
Sequence of Nucleosome assembly protein 1-like 4 (Homo sapiens) (Q99733 whole entry): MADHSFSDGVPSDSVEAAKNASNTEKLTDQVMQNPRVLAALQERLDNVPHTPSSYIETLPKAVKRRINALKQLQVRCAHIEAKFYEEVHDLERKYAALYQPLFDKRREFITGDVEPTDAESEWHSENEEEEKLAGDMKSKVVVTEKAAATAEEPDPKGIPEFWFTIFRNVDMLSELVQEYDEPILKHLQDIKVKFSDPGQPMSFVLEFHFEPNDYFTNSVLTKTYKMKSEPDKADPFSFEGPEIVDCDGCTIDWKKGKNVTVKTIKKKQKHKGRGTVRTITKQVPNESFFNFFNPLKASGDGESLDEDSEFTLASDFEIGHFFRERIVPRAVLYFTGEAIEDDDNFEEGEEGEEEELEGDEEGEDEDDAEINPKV
Assay [39] has as its target Protein kinase C zeta type (Homo sapiens) (UniProt Q05513). Further: assay method not described here.
Assay [40] addresses Arfaptin-2 (Homo sapiens) (UniProt P53365).
Assay [41] concerns the target Ragulator complex protein LAMTOR3 (Homo sapiens) (UniProt Q9UHA4). Further: assay method not described here.
Assay [42] concerns the target BAG family molecular chaperone regulator 2 (Homo sapiens) (UniProt O95816). Further: assay method not described here.
Wherever ED50 is given: assay method not described here.

Sequence of Calcyclin-binding protein (Homo sapiens) (Q9HB71 whole entry): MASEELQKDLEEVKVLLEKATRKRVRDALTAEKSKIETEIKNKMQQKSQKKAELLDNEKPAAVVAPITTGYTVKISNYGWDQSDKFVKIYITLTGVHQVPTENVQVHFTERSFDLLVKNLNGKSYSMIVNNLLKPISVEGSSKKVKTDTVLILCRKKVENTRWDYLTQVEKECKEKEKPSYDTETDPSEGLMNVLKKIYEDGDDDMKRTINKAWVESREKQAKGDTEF
Sequence of Protein kinase C zeta type (Homo sapiens) (Q05513 whole entry): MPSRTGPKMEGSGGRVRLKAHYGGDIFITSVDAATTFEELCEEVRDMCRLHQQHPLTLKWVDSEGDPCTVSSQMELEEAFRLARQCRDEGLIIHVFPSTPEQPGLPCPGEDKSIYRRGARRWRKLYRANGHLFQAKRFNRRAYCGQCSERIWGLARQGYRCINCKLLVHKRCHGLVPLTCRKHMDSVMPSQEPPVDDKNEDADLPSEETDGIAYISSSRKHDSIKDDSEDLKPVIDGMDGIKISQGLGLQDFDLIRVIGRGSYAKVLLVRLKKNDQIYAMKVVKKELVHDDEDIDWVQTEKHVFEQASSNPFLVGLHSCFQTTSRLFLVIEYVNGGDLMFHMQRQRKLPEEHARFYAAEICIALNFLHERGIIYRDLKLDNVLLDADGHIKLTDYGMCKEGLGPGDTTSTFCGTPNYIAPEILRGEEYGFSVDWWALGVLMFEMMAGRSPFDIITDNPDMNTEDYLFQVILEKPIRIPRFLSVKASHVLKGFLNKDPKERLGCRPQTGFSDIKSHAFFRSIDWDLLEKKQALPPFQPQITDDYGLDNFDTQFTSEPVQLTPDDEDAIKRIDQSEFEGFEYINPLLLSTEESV
Sequence of BAG family molecular chaperone regulator 2 (Homo sapiens) (O95816 whole entry): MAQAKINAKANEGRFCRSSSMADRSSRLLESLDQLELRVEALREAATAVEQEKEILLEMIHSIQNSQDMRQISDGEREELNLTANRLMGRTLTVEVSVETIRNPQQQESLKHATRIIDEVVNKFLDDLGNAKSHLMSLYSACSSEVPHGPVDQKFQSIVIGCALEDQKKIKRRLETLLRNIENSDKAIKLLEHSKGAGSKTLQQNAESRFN
Sequence of Nuclear cap-binding protein subunit 2 (Homo sapiens) (P52298 whole entry, the tested form may be a part): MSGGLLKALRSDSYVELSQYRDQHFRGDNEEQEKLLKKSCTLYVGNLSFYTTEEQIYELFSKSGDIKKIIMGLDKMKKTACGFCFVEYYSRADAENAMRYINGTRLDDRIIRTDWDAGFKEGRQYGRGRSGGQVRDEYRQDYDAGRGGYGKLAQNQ

With `Cc1ccc(C(=O)Nc2cccc(C(F)(F)F)c2)cc1Nc1nc(-c2cccnc2)nc2nn(C)cc12`, the ED50 was 2.52 µM in assay [1]; 0.506 µM in assay [2]; 0.0173 µM in assay [3]; 0.00101 µM at Translin (Homo sapiens); 0.00599 µM in the assay filed under Homo sapiens [4]; 0.0227 µM at Matrin-3 (Homo sapiens). In addition, the ED50 in assay [5] stood at 0.516 µM; in [6], 0.00894 µM. The IC50 (usually the concentration needed to halve the response being measured) on Ephrin type-A receptor 2 stood at 0.163 µM.

As to `Cc1ccc(C(=O)Nc2cccc(C(F)(F)F)c2)cc1Nc1nc(-c2cccnc2)nc2c1cnn2C`, the ED50 in [7] was 0.00229 µM; in [8] it was 0.932 µM; in assay [9], 21.2 µM; in assay [10] it was 1.96 µM; in [11], 0.033 µM; in assay [12] it was 95.8 µM. The ED50 worked out at 7.69 µM in assay [13]; 16.9 µM in assay [14]; 0.896 µM in [15]; 0.00634 µM in assay [16]; 120 µM in assay [17]; 0.00584 µM in [18]. For the same compound, the ED50 in [19] was found to be 89.9 µM; in assay [20], 1.7 µM; in assay [21], 0.00691 µM; in [22], 0.0901 µM; in assay [23] it was 1.85 µM; in assay [24], 0.0719 µM. Also, the ED50 is 0.163 µM in assay [25]; 13.7 µM in assay [26]; 0.00322 µM in assay [27]; 0.0986 µM in assay [28]; 0.00451 µM in assay [29]; 93.4 µM in assay [30]. For the same compound, the ED50 is 5.2 µM in assay [31]; 0.192 µM in the assay filed under Homo sapiens [32]; 6.77 µM in [33]; 0.0911 µM in [34]; 6.66 µM in [35]; 4.33 µM in assay [36]. The ED50 in assay [37] was found to be 0.132 µM; on Rootletin (Homo sapiens), 0.115 µM; in assay [38], 9.2 µM; in [39], 6210 µM; in assay [40], 211 µM; in assay [41], 0.816 µM. The same compound gave an ED50 in assay [42] of 0.0188 µM.
